According to the OligoGym collection:
These antisense oligonucleotides have a phosphorothioate backbone; sugars and methylation of C are not fully specified.

How the values were obtained:
Settings in all cases: ASO
PTPN6 = target: PTPN6
TERF1 = target: TERF1
RHOB = target: RHOB
XIAP = target: XIAP
Also: test concentration or dose not given here.

| Sequence | remaining target (mRNA or protein) (fraction of control) (PTPN6) | remaining target (mRNA or protein) (fraction of control) (RHOB) | other results |
| --- | --- | --- | --- |
| TGAGTCTGTCCATCGCGAAA | 0.63 | – | – |
| ACAATCAGTCTTCGCTGTCT | – | – | remaining target (mRNA or protein) (fraction of control) (TERF1): 0.57 |
| GTCTTGGCAGAGCACTCG | – | 0.8 | – |
| AGGTTTATCTTGAGAAGTTA | – | – | remaining target (mRNA or protein) (fraction of control) (TERF1): ≥ 1 |
| TTTAGACCAGTTTCCCTCTC | – | – | remaining target (mRNA or protein) (fraction of control) (TERF1): 0.68 |
| TTTAGGCAGGACGCAGTGGC | – | – | remaining target (mRNA or protein) (fraction of control) (TERF1): 0.47 |
| CGAGGTAGTCGTAGGCTT | – | 0.61 | – |
| CCACCTGAGGACAGCACCGC | 0.84 | – | – |
| GAAACCCCGCCTCTACTAAA | – | – | remaining target (mRNA or protein) (fraction of control) (TERF1): 0.74 |
| ATATTAAATGAAGGTATCAG | – | – | remaining target (mRNA or protein) (fraction of control) (TERF1): ≥ 1 |
| CCAGCTCTGTGCGGACAT | – | 0.79 | – |
| GGGAGAATGTTCTTGTAGCG | ≥ 1 | – | – |
| ACAAACACAATCAGTCTTCG | – | – | remaining target (mRNA or protein) (fraction of control) (TERF1): ≥ 1 |
| GTAGTCGTAGGCTTGGAT | – | 0.71 | – |
| TTACTGAACACGATCAGC | – | ≥ 1 | – |
| TGCGGGCCAGCTCTGTGC | – | 0.69 | – |
| CCACGGGACAGCATCTCTCT | ≥ 1 | – | – |
| CCACCACCAGCTTCTTGC | – | ≥ 1 | – |
| GCCATGTTAAATGGCTCGAT | – | – | remaining target (mRNA or protein) (fraction of control) (TERF1): 0.61 |
| CGTGAGGCTGTCGAAGGTCT | 0.9 | – | – |
| GGGACAGCATCTCTCTGTAG | ≥ 1 | – | – |
| TTCAGTGATCCCAGGGCTTT | 0.75 | – | – |
| GTTGATGCAGCCGTTCTG | – | 0.93 | – |

| Sequence | remaining target (mRNA or protein) (fraction of control) (PTPN6) | remaining target (mRNA or protein) (fraction of control) (RHOB) | other results |
| --- | --- | --- | --- |
| GCCACGCCATCTGCCAGAAG | 0.7 | – | – |
| CCAAATCATCAGGGCTGATT | – | – | remaining target (mRNA or protein) (fraction of control) (TERF1): ≥ 1 |
| TTAACTCTGGTAGCACAAAC | – | – | remaining target (mRNA or protein) (fraction of control) (TERF1): 0.59 |
| AAACACAATCAGTCTTCGCT | – | – | remaining target (mRNA or protein) (fraction of control) (TERF1): 0.93 |
| GCCGTTCTGGGAGCCGTA | – | ≥ 1 | – |
| GACAGCATCTCTCTGTAGGG | 0.78 | – | – |
| CCGTCCACCTCAATGTCG | – | ≥ 1 | – |
| GTTCCTGCTTCATGCGGG | – | 0.73 | – |
| ACGGGACAGCATCTCTCTGT | 0.65 | – | – |
| ACTGGCAAGCTGTTAGACTG | – | – | remaining target (mRNA or protein) (fraction of control) (TERF1): 0.49 |
| TAGGCATCAGGTTATAAAGA | – | – | remaining target (mRNA or protein) (fraction of control) (TERF1): 0.73 |
| AACCACCCACGGGACAGCAT | 0.47 | – | – |
| CAGCAGTTGATGCAGCCG | – | 0.69 | – |
| GCACGTCTTGCCACACGC | – | ≥ 1 | – |
| TCGGCCACATAGTTCTCG | – | 0.87 | – |
| GACATCAAGATGATCATAGT | – | – | remaining target (mRNA or protein) (fraction of control) (TERF1): ≥ 1 |
| AATCAGTCTTCGCTGTCTGA | – | – | remaining target (mRNA or protein) (fraction of control) (TERF1): ≥ 1 |
| GTTCTGGGAGCCGTAGCG | – | 0.64 | – |
| TGTGCGGACATGCTCGTC | – | ≥ 1 | – |
| GAGTCCGGGCTGTCCACC | – | ≥ 1 | – |
| TCAGAGTCGCAAACTTCTCC | ≥ 1 | – | – |
| ACTGAACACGATCAGCAG | – | ≥ 1 | – |
| CTCGTCCTTACTGAACAC | – | 0.99 | – |

| Sequence | remaining target (mRNA or protein) (fraction of control) (PTPN6) | remaining target (mRNA or protein) (fraction of control) (RHOB) | other results |
| --- | --- | --- | --- |
| AGGCTCTCACGCACAAGAAA | 0.66 | – | – |
| TCATGCTCCCCGCAGTTGGT | 0.4 | – | – |
| CGCTCACTTCCTCTTGAGGG | 0.69 | – | – |
| GAAACCACCCACGGGACAGC | ≥ 1 | – | – |
| TCAGTCTTCGCTGTCTGAGG | – | – | remaining target (mRNA or protein) (fraction of control) (TERF1): 0.46 |
| AGTCTTCGCTGTCTGAGGAA | – | – | remaining target (mRNA or protein) (fraction of control) (TERF1): 0.59 |
| CTGAGGAAACATCCTCCGCC | – | – | remaining target (mRNA or protein) (fraction of control) (TERF1): 0.68 |
| CTCTTGAGGGAACCCTTGCT | 0.49 | – | – |
| CGGGCCAGCTCTGTGCGG | – | 0.62 | – |
| CCTTACTGAACACGATCA | – | ≥ 1 | – |
| GGCCTGGCTGGGCTATATAC | ≥ 1 | – | – |
| CATAGTTCTCGAAGACGG | – | ≥ 1 | – |
| GATGAACTTGTACTGCGCCT | 0.84 | – | – |
| TTGTACTGACCATTCTGGAT | – | – | remaining target (mRNA or protein) (fraction of control) (XIAP): 0.47 |
| GAAATTCCTATCAGAACTCA | – | – | remaining target (mRNA or protein) (fraction of control) (XIAP): 0.76 |
| CCACCCACGGGACAGCATCT | ≥ 1 | – | – |
| GATGCAGCCGTTCTGGGA | – | ≥ 1 | – |
| GATGTCAATGTCACAGTCCA | 0.73 | – | – |
| CCGTCGCCCACCACCACC | – | ≥ 1 | – |
| GGGATGTTCTCCAGCGAG | – | 0.67 | – |
| TCTGCTCCTCAGTAGGGTCG | – | – | remaining target (mRNA or protein) (fraction of control) (TERF1): 0.68 |
| TATGATGCTTCTTATTCTTA | – | – | remaining target (mRNA or protein) (fraction of control) (XIAP): 0.65 |
